The text below walks through data of US11191762B2, “Alkyl substituted triazole compounds as agonists of the APJ Receptor” (priority 2016, dated 2021).

The target of one test is human APJ receptor (Homo sapiens (Human), UniProt P35414). Description: biochemical.
Sequence of human APJ receptor (P35414 whole entry): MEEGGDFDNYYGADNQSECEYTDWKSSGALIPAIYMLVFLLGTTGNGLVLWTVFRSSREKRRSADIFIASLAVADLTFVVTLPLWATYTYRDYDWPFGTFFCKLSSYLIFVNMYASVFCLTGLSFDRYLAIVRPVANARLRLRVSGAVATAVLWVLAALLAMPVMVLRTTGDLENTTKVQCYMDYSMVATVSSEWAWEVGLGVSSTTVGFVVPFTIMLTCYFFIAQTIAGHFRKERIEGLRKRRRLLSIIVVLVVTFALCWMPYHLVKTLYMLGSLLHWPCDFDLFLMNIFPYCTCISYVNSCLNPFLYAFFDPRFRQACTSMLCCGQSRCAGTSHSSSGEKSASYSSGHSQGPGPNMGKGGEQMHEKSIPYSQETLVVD
Conditions: not given
It is filed as biochemical. In outline: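 [35S]GTPγS binding to membranes from CHO cells stably expressing human APJ, captured on WGA PS beads (5 μg/well). Buffer: 20 mM HEPES pH 7.5, 5 mM MgCl2, 100 mM NaCl, 0.1% BSA, with 3 μM GDP and 0.1 nM [35S]GTPγS final; compounds tested as 22-point 2-fold dilutions.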
As usually defined, the EC50 is the midpoint of the concentration-response curve. Compound `[2H]C([2H])([2H])OCc1nnc(NS(=O)(=O)[C@@H](C)[C@H](OC)c2ncc(Cl)cn2)n1-c1c(OC)cccc1OC` [Example 129.0, (1R,2S)-1-(5-chloro-2-pyrimidinyl)-N-(4-(2,6-dimethoxyphenyl)-5-(((˜2-H_3_)methyloxy)methyl)-4H-1,2,4-triazol-3-yl)-1-methoxy-2-propanesulfonamide] showed an EC50 of 4.3 nM.

Still in this test, the particulars now being: [35S]GTPγS binding, membranes from CHO cells stably expressing human APJ receptor; read-out: Activity hAPJ SPA EC50 IP.
For `COCc1nnc(NS(=O)(=O)[C@@H](C)[C@H](OC)c2ncc(Cl)cn2)n1C1CCOCC1` [Example 63.0, (1R, 2S)-1-(5-chloropyrimidin-2-yl)-1-methoxy-N-(5-(methoxymethyl)-4-(tetrahydro-2H-pyran-4-yl)-4H-1,2,4-triazol-3-yl)propane-2-sulfonamide], the EC50 came out at 10 nM.
Same read-out and setting: to `CCC(CC)n1c(COC)nnc1NS(=O)(=O)[C@@H](C)[C@H](OC)c1ncc(Cl)cn1` [Example 147.0] belongs 170 nM; to `COCc1nnc(NS(=O)(=O)[C@@H](C)[C@H](C)c2cnc(C)cn2)n1-c1c(OC)ncnc1OC` [Example 9.0, (2S,3R)-N-(4-(4,6-dimethoxy-5-pyrimidinyl)-5-(methoxymethyl)-4H-1,2,4-triazol-3-yl)-3-(5-methyl-2-pyrazinyl)-2-butanesulfonamide], 630 nM.
Still for that read-out and setting: to `COc1ncnc(OC)c1-n1c(NS(=O)(=O)[C@@H](C)[C@H](C)c2ncc(Cl)cn2)nnc1[C@@H](C)OC` (single isomer, unassigned) [Example 5.0, (2S,3R)-3-(5-chloro-2-pyrimidinyl)-N-(4-(4,6-dimethoxy-5-pyrimidinyl)-5-((1R)-1-methoxyethyl)-4H-1,2,4-triazol-3-yl)-2-butanesulfonamide or (2S,3R)-3-(5-chloro-2-pyrimidinyl)-N-(4-(4,6-dimethoxy-5-pyrimidinyl)-5-((1S)-1-methoxyethyl)-4H-1,2,4-triazol-3-yl)-2-butanesulfonamide] belongs 310 nM; to `COc1cccc(OC)c1-n1c(Cn2ccccc2=O)nnc1NS(=O)(=O)[C@@H](C)[C@H](C)c1ncc(Cl)cn1` [Example 42.0, (2S,3R)-3-(5-chloro-2-pyrimidinyl)-N-(4-(2,6-dimethoxyphenyl)-5-((2-oxo-1(2H)-pyridinyl)methyl)-4H-1,2,4-triazol-3-yl)-2-butanesulfonamide], 330 nM.
On the same count and under the same terms, to `COCc1nnc(NS(=O)(=O)[C@@H](C)[C@H](OC)c2ncc(Cl)cn2)n1C(C)C` [Example 144.0] belongs 1200 nM; to `COc1ncnc(OC)c1-n1c(NS(=O)(=O)[C@@H](C)[C@H](C)c2ncc(Cl)cn2)nnc1[C@@H](C)OC(C)C` (single isomer, unassigned) [Example 3.0, (2S,3R)-3-(5-chloro-2-pyrimidinyl)-N-(4-(4,6-dimethoxy-5-pyrimidinyl)-5-((1R)-1-(1-methylethoxy)ethyl)-4H-1,2,4-triazol-3-yl)-2-butanesulfonamide or (2S,3R)-3-(5-chloro-2-pyrimidinyl)-N-(4-(4,6-dimethoxy-5-pyrimidinyl)-5-((1S)-1-(1-methylethoxy)ethyl)-4H-1,2,4-triazol-3-yl)-2-butane sulfonamide], 320 nM; to `COc1ncnc(OC)c1-n1c(CC2CCCCC2)nnc1NS(=O)(=O)[C@@H](C)[C@H](OC)c1ncc(Cl)cn1` [Example 29.0, (1R,2S)-1-(5-chloro-2-pyrimidinyl)-N-(5-(cyclohexylmethyl)-4-(4,6-dimethoxy-5-pyrimidinyl)-4H-1,2,4-triazol-3-yl)-1-methoxy-2-propanesulfonamide], 21 nM.
Regarding “(S)-N-(4-(2,6-dimethoxyphenyl)-5-(methoxymethyl)-4H-1,2,4-triazol-3-yl)-1-(5-fluoropyrimidin-2-yl)piperidine-3-sulfonamide or (R)-N-(4-(2,6-dimethoxyphenyl)-5-(methoxymethyl)-4H-1,2,4-triazol-3-yl)-1-(5-fluoropyrimidin-2-yl)piperidine-3-sulfonamide [Example 77.0]”, the EC50 was 176 nM.
Turning to `COc1cccc(OC)c1-n1c(CCN(C)C)nnc1NS(=O)(=O)[C@@H](C)[C@H](OC)c1ncc(C)cn1` [Example 51.0], the EC50 is 520 nM.
Same read-out and setting: with `COc1cccc(OC)c1-n1c(NS(=O)(=O)[C@@H](C)[C@H](C)c2ncc(Cl)cn2)nnc1[C@@H](O)c1ccccc1` [Example 13.0, (2S,3R)-3-(5-chloro-2-pyrimidinyl)-N-(4-(2,6-dimethoxyphenyl)-5-((S)-hydroxy(phenyl)methyl)-4H-1,2,4-triazol-3-yl)-2-butanesulfonamide] the figure was 110 nM.
On the same count and under the same terms, with `COc1ncnc(OC)c1-n1c(NS(=O)(=O)[C@@H](C)[C@H](C)c2ncc(Cl)cn2)nnc1[C@@H](C)OC` (single isomer, unassigned) [Example 4.0, (2S,3R)-3-(5-chloro-2-pyrimidinyl)-N-(4-(4,6-dimethoxy-5-pyrimidinyl)-5-((1R)-1-methoxyethyl)-4H-1,2,4-triazol-3-yl)-2-butanesulfonamide or (2S,3R)-3-(5-chloro-2-pyrimidinyl)-N-(4-(4,6-dimethoxy-5-pyrimidinyl)-5-((1S)-1-methoxyethyl)-4H-1,2,4-triazol-3-yl)-2-butanesulfonamide] the figure was 270 nM; with `COc1ncnc(OC)c1-n1c(COCC(F)(F)F)nnc1NS(=O)(=O)[C@@H](C)[C@H](OC)c1ncc(Cl)cn1` [Example 135.0, (1R,2S)-1-(5-chloro-2-pyrimidinyl)-N-(4-(4,6-dimethoxy-5-pyrimidinyl)-5-((2,2,2-trifluoroethoxy)methyl)-4H-1,2,4-triazol-3-yl)-1-methoxy-2-propanesulfonamide], 40 nM.
The same measure, in the same setting: to “(1R.2S)-1-(5-chloropyrimidin-2-yl)-1-methoxy-N-(4-(1-methylcyclopropyl)-5-(((R)-tetrahydrofuran-2-yl)methyl)-4H-1,2,4-triazol-3-yl)propane-2-sulfonamide or (1R,2S)-1-(5-chloropyrimidin-2-yl)-1-methoxy-N-(4-(1-methylcyclopropyl)-5-(((S)-tetrahydrofuran-2-yl)methyl)-4H-1,2,4-triazol-3-yl)propane-2-sulfonamide [Example 57.0]” belongs 42 nM; to `COCc1nnc(NS(=O)(=O)[C@@H](C)[C@@H](OC(C)C)c2ncc(C)cn2)n1-c1cc(OC)ccc1Cl` [Example 163.0], 40 nM.
`COc1cccc(OC)c1-n1c(Cc2cccnc2)nnc1NS(=O)(=O)[C@@H](C)[C@H](C)c1ncc(C)cn1` [Example 15.0, (2S,3R)-N-(4-(2,6-dimethoxyphenyl)-5-(3-pyridinylmethyl)-4H-1,2,4-triazol-3-yl)-3-(5-methyl-2-pyrimidinyl)-2-butanesulfonamide]: the EC50 stood at 180 nM.
On to `COc1cccc(OC)c1-n1c(C)nnc1NS(=O)(=O)[C@@H](C)[C@H](OC)c1ncc(C)cn1` [Example 26.0, (1R,2S)-N-(4-(2,6-dimethoxyphenyl)-5-methyl-4H-1,2,4-triazol-3-yl)-1-methoxy-1-(5-methylpyrimidin-2-yl)propane-2-sulfonamide], for which the EC50 worked out at 120 nM.
On the same count and under the same terms, to `COc1ncnc(OC)c1-n1c(Cc2ccccc2)nnc1NS(=O)(=O)[C@@H](C)[C@H](C)c1ncc(Cl)cn1` [Example 21.0, (2S,3R)-N-(5-benzyl-4-(4,6-dimethoxy-5-pyrimidinyl)-4H-1,2,4-triazol-3-yl)-3-(5-chloro-2-pyrimidinyl)-2-butanesulfonamide] belongs 120 nM.
Same read-out and setting: to `COc1cccc(OC)c1-n1c(Cc2ccc(F)cc2)nnc1NS(=O)(=O)[C@@H](C)[C@H](OC)c1ncc(C)cn1` [Example 50.0] belongs 940 nM.
Same read-out and setting: with `COc1cccc(OC)c1-n1c(CCN2CCN(C)CC2)nnc1NS(=O)(=O)[C@@H](C)[C@H](OC)c1ncc(C)cn1` [Example 53.0] the figure was 54 nM; with `COc1ncnc(OC)c1-n1c(COC(F)F)nnc1NS(=O)(=O)[C@@H](C)[C@H](OC)c1ncc(Cl)cn1` [Example 128.0, (1R,2S)-1-(5-chloropyrimidin-2-yl)-N-(5-((difluoromethoxy)methyl)-4-(4,6-dimethoxypyrimidin-5-yl)-4H-1,2,4-triazol-3-yl)-1-methoxypropane-2-sulfonamide], 60 nM.
Regarding `COc1cccc(OC)c1-n1c(Cc2ccccc2)nnc1NS(=O)(=O)[C@@H](C)[C@H](OC)c1ncc(C)cn1` [Example 54.0], the EC50 came to 300 nM.

Still in this test, the particulars now being: read-out: Activity hAPJ SPA EC50 IP.
`COCc1nnc(NS(=O)(=O)[C@@H](C)[C@@H](OC(C)C)c2ncc(C)cn2)n1-c1c(OC)cccc1OC` [Example 62.0, (1S,2S)-N-(4-(2,6-dimethoxyphenyl)-5-(methoxymethyl)-4H-1,2,4-triazol-3-yl)-1-isopropoxy-1-(5-methylpyrimidin-2-yl)propane-2-sulfonamide]: the EC50 amounted to 1000 nM.
Still for that read-out and setting: to `CCCCc1nnc(NS(=O)(=O)[C@@H](C)[C@H](OC)c2ncc(Cl)cn2)n1-c1c(OC)cccc1OC` [Example 174.0] belongs 0.3 nM; to `COCc1nnc(NS(=O)(=O)[C@@H](C)[C@H](OC)c2ncc(C)cn2)n1-c1c(OC)cccc1OC` [Example 60.0, (1R,2S)-N-(4-(2.6-dimethoxyphenyl)-5-(methoxymethyl)-4H-1.2,4-triazol-3-yl)-1-methoxy-1-(5-methylpyrimidin-2-yl)propane-2-sulfonamide], 22 nM; to `COCCOCc1nnc(NS(=O)(=O)[C@@H](C)[C@H](C)c2ncc(Cl)cn2)n1-c1c(OC)cccc1OC` [Example 151.0], 24 nM.
